Assay results as given in ChEMBL document CHEMBL1153520, “A multivalent approach to the design and discovery of orally efficacious 5-HT4 receptor agonists” (J Med Chem, 2009).
pEC50, pKi: −log10 of the molar value.

How the values were obtained:
[1] = Permeability across human Caco-2 cells assessed as permeability coefficient; format: ADME, cell-based; details: read-out: permeability
[2] = molecular target: T1, 5-hydroxytryptamine receptor 4 (Homo sapiens, UniProt Q13639); experiment: Intrinsic activity at human 5HT4C receptor expressed in HEK293 cells assessed as accumulation of cAMP by flash plate adenylyl cyclase activation assay relative to serotonin; format: functional, cell-based
[3] = molecular target: T1, 5-hydroxytryptamine receptor 4; experiment: Agonist activity at human 5HT4C receptor expressed in HEK293 cells assessed as accumulation of cAMP by flash plate adenylyl cyclase activation assay; format: functional, cell-based
hERG (KCNH2) = hERG (KCNH2) (Homo sapiens, UniProt Q12809); experiment: Inhibition of human ERG potassium channel expressed in CHO-K1 cells at 3 uM by whole cell voltage clamp assay; format: cell-based; details: CHO-K1 cells expressing human ERG potassium channel
[4] = molecular target: T1, 5-hydroxytryptamine receptor 4; experiment: Displacement of [H]GR-113808 from human 5HT4C receptor expressed in HEK293 cells by liquid scintillation counting; format: cell-based
Homo sapiens = species: Homo sapiens; experiment: Selectivity ratio of Ki for human 5HT3A receptor to Ki for human 5HT4C receptor

T1 sequence (Q13639 whole entry): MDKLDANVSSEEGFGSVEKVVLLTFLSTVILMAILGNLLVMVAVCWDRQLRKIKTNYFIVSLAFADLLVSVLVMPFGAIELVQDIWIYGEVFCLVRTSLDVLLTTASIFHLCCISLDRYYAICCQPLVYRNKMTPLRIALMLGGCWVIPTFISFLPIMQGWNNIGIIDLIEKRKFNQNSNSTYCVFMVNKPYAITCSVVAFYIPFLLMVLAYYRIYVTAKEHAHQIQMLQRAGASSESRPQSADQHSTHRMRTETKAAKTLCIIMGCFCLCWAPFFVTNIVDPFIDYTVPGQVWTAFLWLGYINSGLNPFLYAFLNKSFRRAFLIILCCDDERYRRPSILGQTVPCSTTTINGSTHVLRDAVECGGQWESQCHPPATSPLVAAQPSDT
Chain of hERG (KCNH2) (Q12809 whole entry): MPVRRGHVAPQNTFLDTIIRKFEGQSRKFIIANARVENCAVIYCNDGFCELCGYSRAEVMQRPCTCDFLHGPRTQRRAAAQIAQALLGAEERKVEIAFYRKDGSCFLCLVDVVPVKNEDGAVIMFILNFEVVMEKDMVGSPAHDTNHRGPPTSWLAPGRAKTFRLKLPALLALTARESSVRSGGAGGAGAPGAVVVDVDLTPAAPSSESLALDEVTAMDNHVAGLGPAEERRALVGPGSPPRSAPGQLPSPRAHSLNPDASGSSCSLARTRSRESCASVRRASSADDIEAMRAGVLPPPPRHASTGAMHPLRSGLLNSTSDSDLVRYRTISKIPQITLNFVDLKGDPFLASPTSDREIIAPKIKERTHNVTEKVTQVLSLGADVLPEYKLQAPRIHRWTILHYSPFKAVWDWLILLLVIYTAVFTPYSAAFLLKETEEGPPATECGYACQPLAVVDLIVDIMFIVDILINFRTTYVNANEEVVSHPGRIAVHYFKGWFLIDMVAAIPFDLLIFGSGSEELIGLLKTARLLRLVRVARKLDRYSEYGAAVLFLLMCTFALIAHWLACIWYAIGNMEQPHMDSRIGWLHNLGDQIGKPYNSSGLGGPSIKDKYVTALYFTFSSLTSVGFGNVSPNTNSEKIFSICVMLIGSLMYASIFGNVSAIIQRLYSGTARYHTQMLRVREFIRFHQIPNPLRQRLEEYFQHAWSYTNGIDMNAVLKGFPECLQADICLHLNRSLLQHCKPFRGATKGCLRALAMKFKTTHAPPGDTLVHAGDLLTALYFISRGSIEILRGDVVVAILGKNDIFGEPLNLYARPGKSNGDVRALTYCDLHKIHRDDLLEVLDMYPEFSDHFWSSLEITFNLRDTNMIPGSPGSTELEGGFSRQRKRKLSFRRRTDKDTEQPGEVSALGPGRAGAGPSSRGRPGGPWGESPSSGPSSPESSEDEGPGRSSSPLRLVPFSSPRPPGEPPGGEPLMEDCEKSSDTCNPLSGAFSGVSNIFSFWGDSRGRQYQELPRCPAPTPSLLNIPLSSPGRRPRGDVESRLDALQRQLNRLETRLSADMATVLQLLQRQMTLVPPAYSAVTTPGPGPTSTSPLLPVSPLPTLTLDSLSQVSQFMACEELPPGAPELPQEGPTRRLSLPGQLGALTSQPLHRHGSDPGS

Compound: CC(C)n1c(=O)c(C(=O)N[C@H]2C[C@H]3CC[C@@H](C2)N3CCCCCCCN2CCC[C@@H]2C(N)=O)cc2ccccc21
- Papp [1]: 9 ×10⁻⁶ cm/s
- Intrinsic activity [2]: > 100%
- pEC50 [3]: 9.40
- inhibition at 3 µM (hERG (KCNH2)): 7%
- pKi [4]: 8.70
- Ratio Ki (Homo sapiens): 20000

Compound: CCOC(=O)N1CCN(CCCCCCCN2[C@@H]3CC[C@H]2C[C@@H](NC(=O)c2cc4ccccc4n(C(C)C)c2=O)C3)CC1
- Papp [1]: 14 ×10⁻⁶ cm/s
- Intrinsic activity [2]: > 100%
- pEC50 [3]: 8.50
- inhibition at 3 µM (hERG (KCNH2)): 87%
- pKi [4]: 8.10
- Ratio Ki (Homo sapiens): 810

Compound: CC(C)n1c(=O)c(C(=O)N[C@H]2C[C@H]3CC[C@@H](C2)N3C[C@H](O)CN2CCN(S(C)(=O)=O)CC2)cc2ccccc21
- Papp [1]: 20 ×10⁻⁶ cm/s
- Intrinsic activity [2]: > 100%
- pEC50 [3]: 8.90
- inhibition at 3 µM (hERG (KCNH2)): 6%
- pKi [4]: 7.30
- Ratio Ki (Homo sapiens): 1300

Compound: CC(C)n1c(=O)c(C(=O)N[C@H]2C[C@H]3CC[C@@H](C2)N3CCCCCCCN(C)CCCN(C)S(C)(=O)=O)cc2ccccc21
- Papp [1]: 3 ×10⁻⁶ cm/s
- Intrinsic activity [2]: 96%
- pEC50 [3]: 9.20
- inhibition at 3 µM (hERG (KCNH2)): 12%
- pKi [4]: 8.30
- Ratio Ki (Homo sapiens): 6500

Compound: CCOC(=O)N1CCN(CCCN2[C@@H]3CC[C@H]2C[C@@H](NC(=O)c2cc4ccccc4n(C(C)C)c2=O)C3)CC1
- Papp [1]: 31 ×10⁻⁶ cm/s
- Intrinsic activity [2]: > 100%
- pEC50 [3]: 8.60
- inhibition at 3 µM (hERG (KCNH2)): 75%
- pKi [4]: 7.40
- Ratio Ki (Homo sapiens): 1300

Compound: CC(C)n1c(=O)c(C(=O)N[C@H]2C[C@H]3CC[C@@H](C2)N3CCCN2CCC(CNS(C)(=O)=O)CC2)cc2ccccc21
- Papp [1]: 3 ×10⁻⁶ cm/s
- Intrinsic activity [2]: > 100%
- pEC50 [3]: 9.00
- inhibition at 3 µM (hERG (KCNH2)): 14%
- pKi [4]: 8.30
- Ratio Ki (Homo sapiens): 11000

Compound: CC(C)n1c(=O)c(C(=O)N[C@H]2C[C@H]3CC[C@@H](C2)N3CCCN(C)CCCN(C)S(C)(=O)=O)cc2ccccc21
- Papp [1]: 4 ×10⁻⁶ cm/s
- Intrinsic activity [2]: > 100%
- pEC50 [3]: 8.00
- inhibition at 3 µM (hERG (KCNH2)): 6%
- pKi [4]: 6.70
- Ratio Ki (Homo sapiens): 210

Compound: CC(C)n1c(=O)c(C(=O)N[C@H]2C[C@H]3CC[C@@H](C2)N3CCCCCCCN2CCOCC2)cc2ccccc21
- Papp [1]: 28 ×10⁻⁶ cm/s
- Intrinsic activity [2]: > 100%
- pEC50 [3]: 8.60
- inhibition at 3 µM (hERG (KCNH2)): 34%
- pKi [4]: 8.70
- Ratio Ki (Homo sapiens): 1600

Compound: COc1cc(N)c(Cl)cc1C(=O)NC1CCN(CCCCCCCCN2C(=O)c3ccccc3C2=O)CC1
- Intrinsic activity [2]: 89%
- pEC50 [3]: 8.50
- pKi [4]: 7.40
- Ratio Ki (Homo sapiens): 40

Compound: CC(C)n1c(=O)c(C(=O)N[C@H]2C[C@H]3CC[C@@H](C2)N3CCS(=O)(=O)O)cc2ccccc21
- Intrinsic activity [2]: > 100%
- pEC50 [3]: 8.20
- pKi [4]: 6.00
- Ratio Ki (Homo sapiens): 49

Compound: CC(C)n1c(=O)c(C(=O)NC2CCNCC2)cc2ccccc21
- Intrinsic activity [2]: > 100%
- pEC50 [3]: 6.80
- pKi [4]: 5.50
- Ratio Ki (Homo sapiens): 0.14

Compound: CC(C)n1c(=O)c(C(=O)N[C@H]2C[C@H]3CC[C@@H](C2)N3CCN2CCCCC2)cc2ccccc21
- Intrinsic activity [2]: > 100%
- pEC50 [3]: 8.00
- pKi [4]: 7.10
- Ratio Ki (Homo sapiens): 720

Compound: COc1cc(N)c(Cl)cc1C(=O)NC1CCN(CCCCCS(=O)(=O)O)CC1
- Intrinsic activity [2]: 93%
- pEC50 [3]: 6.40
- pKi [4]: 5.20
- Ratio Ki (Homo sapiens): 0.15

Compound: COc1cc(N)c(Cl)cc1C(=O)NC1CCN(CCCCCCCCS(=O)(=O)O)CC1
- Intrinsic activity [2]: > 100%
- pEC50 [3]: 6.00
- pKi [4]: 4.80
- Ratio Ki (Homo sapiens): 4.3

Compound: COc1cc(N)c(Cl)cc1C(=O)NC1CCN(CCCCCCCCN2CCCCC2)CC1
- Intrinsic activity [2]: > 100%
- pEC50 [3]: 8.50
- pKi [4]: 8.50
- Ratio Ki (Homo sapiens): 2000

Compound: CC(C)n1c(=O)c(C(=O)N[C@H]2C[C@H]3CC[C@@H](C2)N3CCCCCN2CCN(S(C)(=O)=O)CC2)cc2ccccc21
- Intrinsic activity [2]: > 100%
- pEC50 [3]: 8.90
- pKi [4]: 7.80
- Ratio Ki (Homo sapiens): 2800

Compound: CC(C)n1c(=O)n(C(=O)NCC2CCNCC2)c2ccccc21
- Intrinsic activity [2]: 92%
- pEC50 [3]: 7.80
- pKi [4]: 7.40
- Ratio Ki (Homo sapiens): 0.21

Compound: CC(C)n1c(=O)c(C(=O)N[C@H]2C[C@H]3CC[C@@H](C2)N3CCCN2CCCCC2)cc2ccccc21
- Papp [1]: 24 ×10⁻⁶ cm/s
- Intrinsic activity [2]: > 100%
- pEC50 [3]: 8.70
- inhibition at 3 µM (hERG (KCNH2)): 39%
- pKi [4]: 8.20
- Ratio Ki (Homo sapiens): 9200

Compound: CC(C)n1c(=O)c(C(=O)N[C@H]2C[C@H]3CC[C@@H](C2)N3CCCCCN(C)CCc2c[nH]c3ccccc23)cc2ccccc21
- Intrinsic activity [2]: > 100%
- pEC50 [3]: 9.20
- pKi [4]: 8.50
- Ratio Ki (Homo sapiens): 6000

Compound: CC(C)n1c(=O)c(C(=O)N[C@H]2C[C@H]3CC[C@@H](C2)N3CCCN2CCC[C@@H]2C(N)=O)cc2ccccc21
- Papp [1]: 2 ×10⁻⁶ cm/s
- Intrinsic activity [2]: > 100%
- pEC50 [3]: 8.40
- inhibition at 3 µM (hERG (KCNH2)): 12%
- pKi [4]: 7.30
- Ratio Ki (Homo sapiens): 1500

Compound: CCCCCN1[C@@H]2CC[C@H]1C[C@@H](NC(=O)c1cc3ccccc3n(C(C)C)c1=O)C2
- Intrinsic activity [2]: > 100%
- pEC50 [3]: 7.40
- pKi [4]: 7.20
- Ratio Ki (Homo sapiens): 890

Compound: CC(C)n1c(=O)c(C(=O)N[C@H]2C[C@H]3CC[C@@H](C2)N3CCN2C(=O)c3ccccc3C2=O)cc2ccccc21
- Intrinsic activity [2]: > 100%
- pEC50 [3]: 7.10
- pKi [4]: 6.00
- Ratio Ki (Homo sapiens): 55

Compound: CC(C)n1c(=O)n(C(=O)NCCN2CCNCC2)c2ccccc21
- Intrinsic activity [2]: > 100%
- pEC50 [3]: 8.10
- pKi [4]: 6.90
- Ratio Ki (Homo sapiens): 1

Compound: CC(C)n1c(=O)c(C(=O)N[C@H]2C[C@H]3CC[C@@H](C2)N3CCCN2CCOCC2)cc2ccccc21
- Papp [1]: 22 ×10⁻⁶ cm/s
- Intrinsic activity [2]: > 100%
- pEC50 [3]: 8.60
- inhibition at 3 µM (hERG (KCNH2)): 80%
- pKi [4]: 7.40
- Ratio Ki (Homo sapiens): 750

Compound: CC(C)n1c(=O)c(C(=O)N[C@H]2C[C@H]3CC[C@@H](C2)N3)cc2ccccc21
- Intrinsic activity [2]: > 100%
- pEC50 [3]: 7.90
- pKi [4]: 6.60
- Ratio Ki (Homo sapiens): 0.85

Compound: COc1cc(N)c(Cl)cc1C(=O)NC1CCN(CCCCCN2CCCCC2)CC1
- Intrinsic activity [2]: > 100%
- pEC50 [3]: 8.30
- pKi [4]: 8.00
- Ratio Ki (Homo sapiens): 990

Compound: COc1cc(N)c(Cl)cc1C(=O)NC1CCN(CCCCCCCCO)CC1
- Intrinsic activity [2]: > 100%
- pEC50 [3]: 7.80
- pKi [4]: 7.10
- Ratio Ki (Homo sapiens): 29

Compound: CC(C)n1c(=O)c(C(=O)N[C@H]2C[C@H]3CC[C@@H](C2)N3CCCCCCCCN2C(=O)c3ccccc3C2=O)cc2ccccc21
- Intrinsic activity [2]: > 100%
- pEC50 [3]: 7.30
- pKi [4]: 7.50
- Ratio Ki (Homo sapiens): 120

Compound: COc1cc(N)c(Cl)cc1C(=O)NC1CCN(CCCCCCCCN(C)CCc2c[nH]c3ccccc23)CC1
- Intrinsic activity [2]: > 100%
- pEC50 [3]: 9.10
- pKi [4]: 8.90
- Ratio Ki (Homo sapiens): 2800

Compound: COc1cc(N)c(Cl)cc1C(=O)NC1CCN(CCN2C(=O)c3ccccc3C2=O)CC1
- Intrinsic activity [2]: 94%
- pEC50 [3]: 6.20
- pKi [4]: 5.10
- Ratio Ki (Homo sapiens): 13

Compound: CCCCCCCCN1CCC(NC(=O)c2cc(Cl)c(N)cc2OC)CC1
- Intrinsic activity [2]: > 100%
- pEC50 [3]: 7.40
- pKi [4]: 7.10
- Ratio Ki (Homo sapiens): 23

Compound: COc1cc(N)c(Cl)cc1C(=O)NC1CCN(CCN2CCN(S(C)(=O)=O)CC2)CC1
- Intrinsic activity [2]: 97%
- pEC50 [3]: 7.70
- pKi [4]: 6.90
- Ratio Ki (Homo sapiens): 21
